Our source for the inhibition and IC50 values is ChEMBL document CHEMBL3352249, “Novel indolizine derivatives with unprecedented inhibitory activity on human farnesyltransferase” (Bioorg Med Chem Lett, 2014).

A word on the inhibition: it is the relative decrease from the control value, in per cent. The pIC50 is −log10 of the IC50, conventionally taken in molar units.

Test [1] has as its target T1, Protein farnesyltransferase (Homo sapiens, UniProt P49354+P49356). The test can be described thus: Inhibition of human recombinant farnesyltransferase using Dansyl-GCVLS peptide as substrate at 100 uM after 15 mins by fluorescence assay.
Test [2] has as its target T1, Protein farnesyltransferase. Description: Inhibition of human recombinant farnesyltransferase using Dansyl-GCVLS peptide as substrate after 15 mins by fluorescence assay.

pIC50: −log10 of the molar value.

Take `C#CCOC(=O)c1cc(C(=O)c2ccc(Cl)cc2)n2ccc(C)cc12`: the inhibition in test [1] is 0%. Take `C#CCNC(=O)c1cc(C(=O)c2ccc(Cl)cc2)n2ccccc12`: in test [2], the pIC50 was 5.23. The inhibition in test [1] amounted to 94%. As for `Cc1ccn2c(C(=O)c3ccc(Cl)cc3)cc(C(=O)O)c2c1`, in test [1], the inhibition came to 0%. As to `C#CCOC(=O)c1cc(C(=O)c2ccccc2)n2ccc(C)cc12`, in test [1], the inhibition stood at 72%. As for `C#CCOC(=O)c1cc(C(=O)c2ccccc2)n2ccccc12`, in test [2], the pIC50 was 4.84. Moreover, the inhibition in test [1] was found to be 100%. For `C#CCNC(=O)c1cc(C(=O)c2ccc(Br)cc2)n2ccccc12`, in that order: 5.36 and 100%. As to `C#CCCOC(=O)c1cc(C(=O)c2ccc(Cl)cc2)n2ccc(C)cc12`, in test [1], the inhibition is 0%. As for `C#CCCOC(=O)c1cc(C(=O)c2ccccc2)n2c(C)cccc12`, in test [2], the negative-log IC50 (pIC50) is 5.14. Moreover, the inhibition in test [1] stood at 94%. Consider `C#CCCOC(=O)c1cc(C(=O)c2ccc(Br)cc2)n2ccc(C)cc12`, for which the inhibition in test [1] was 68%. Regarding `C#CCCOC(=O)c1cc(C(=O)c2ccc(Br)cc2)n2ccccc12`, the inhibition in test [1] came to 0%. As to `C#CCOC(=O)c1cc(C(=O)c2ccc(Cl)cc2)n2ccccc12`, in test [1], the inhibition was determined as 54%.

Turning to `C#CCOC(=O)c1cc(C(=O)c2ccc(Cl)cc2)n2c(C)cccc12`, in test [2], the negative-log IC50 (pIC50) was 5.59. Also, the inhibition in test [1] amounted to 100%.

In the case of `Cc1cccc2c(C(=O)O)cc(C(=O)c3ccc(Cl)cc3)n12`, the pIC50 in test [2] is 4.49. For the same compound, in test [1], the inhibition amounted to 79%. Consider `O=C(O)c1cc(C(=O)c2ccc(Cl)cc2)n2ccccc12`, for which the pIC50 in test [2] is 4.68. Besides, the inhibition in test [1] came to 100%. Take `C#CCCOC(=O)c1cc(C(=O)c2ccc(Cl)cc2)n2ccccc12`: the inhibition in test [1] worked out at 0%. As for `C#CCCOC(=O)c1cc(C(=O)c2ccccc2)n2ccc(C)cc12`, the inhibition in test [1] was 0%. Turning to `Cc1cccc2c(C(=O)O)cc(C(=O)c3ccc(Br)cc3)n12`, the pIC50 in test [2] is 4.83. In test [1], the inhibition was 91%.

As for `C#CCOC(=O)c1cc(C(=O)c2ccc(Br)cc2)n2c(C)cccc12`, the pIC50 in test [2] was 5.89. Besides, the inhibition in test [1] was 100%. The like results for `C#CCNC(=O)c1cc(C(=O)c2ccccc2)n2ccccc12` were, in that order, 4.66 and 100%. `Cc1ccn2c(C(=O)c3ccc(Br)cc3)cc(C(=O)O)c2c1`: in test [1], the inhibition came out at 0%. `O=C(O)c1cc(C(=O)c2ccccc2)n2ccccc12`: in test [2], the pIC50 was 4.71. The inhibition in test [1] stood at 100%.

For the compound `C#CCCOC(=O)c1cc(C(=O)c2ccc(Br)cc2)n2c(C)cccc12`, in test [2], the pIC50 is 5.66. The inhibition in test [1] worked out at 100%. The like results for `C#CCOC(=O)c1cc(C(=O)c2ccccc2)n2c(C)cccc12` were, in that order, 4.68 and 93%. In the case of `Cc1cccc2c(C(=O)O)cc(C(=O)c3ccccc3)n12`, the inhibition in test [1] is 48%.

`C#CCNC(=O)c1cc(C(=O)c2ccccc2)n2c(C)cccc12`: in test [2], the pIC50 is 4.24. For the same compound, the inhibition in test [1] is 74%. Turning to `C#CCCOC(=O)c1cc(C(=O)c2ccccc2)n2ccccc12`, the inhibition in test [1] came out at 61%.

With `Cc1ccn2c(C(=O)c3ccccc3)cc(C(=O)O)c2c1`, the pIC50 in test [2] is 4.14. Moreover, in test [1], the inhibition was determined as 100%. The like results for `O=C(O)c1cc(C(=O)c2ccc(Br)cc2)n2ccccc12` were, in that order, 4.71 and 100%. For `C#CCNC(=O)c1cc(C(=O)c2ccccc2)n2ccc(C)cc12`, in that order: 4.82 and 100%.

Turning to `C#CCNC(=O)c1cc(C(=O)c2ccc(Br)cc2)n2c(C)cccc12`, the negative-log IC50 (pIC50) in test [2] is 4.94. In test [1], the inhibition is 90%.

For the compound `C#CCNC(=O)c1cc(C(=O)c2ccc(Cl)cc2)n2c(C)cccc12`, the pIC50 in test [2] was 4.83. Besides, the inhibition in test [1] came out at 97%. For `C#CCCOC(=O)c1cc(C(=O)c2ccc(Cl)cc2)n2c(C)cccc12`, in that order: 4.68 and 97%. The like results for `CCCCCCCCCCCCCC/C(C(=O)O)=C(\C)C(=O)O` [CHAETOMELLIC ACID A] were, in that order, 6.74 and 100%.
